The text below walks through data of patent US7538131B2, “2-{-3-′2-(phenyl)-oxazol-4-ylmethoxymethyl-cyclohexylmethoxy}-propionic acid derivatives useful as peroxisome proliferator-activated receptor (PPAR) ligands for the treatment of hyperlipidemia and diabetes” (Sanofi-Aventis Deutschland GmbH, priority 2004, dated 2009).

The target of experiment [1] is T1, human PPARalpha (Homo sapiens, UniProt Q07869).
T1 construct: human PPARalpha receptor (amino acids S167-Y468); expressed in transfected cells; host or cells: HEK cells (stably transfected, pcDNA3, CMV promoter)
T1 sequence (Q07869 167-468): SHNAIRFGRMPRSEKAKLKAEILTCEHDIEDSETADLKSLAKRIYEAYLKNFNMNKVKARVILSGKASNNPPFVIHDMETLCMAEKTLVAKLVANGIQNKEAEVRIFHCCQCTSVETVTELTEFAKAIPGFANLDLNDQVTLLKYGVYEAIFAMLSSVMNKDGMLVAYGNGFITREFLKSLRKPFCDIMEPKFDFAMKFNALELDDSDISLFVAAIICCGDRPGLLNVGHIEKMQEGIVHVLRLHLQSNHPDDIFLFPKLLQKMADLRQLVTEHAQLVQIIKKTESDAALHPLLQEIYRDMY
The experiment in a line: Cellular PPARalpha assay (stably transfected HEK luciferase reporter cell line). Format: cell-based. Particulars: GR-GAL4-humanPPARalpha-LBD, 24 h. As to the method:
1) Determination of EC50 Values of PPAR Agonists in the Cellular PPARalpha Assay
The activity of the novel compounds of the present invention was tested as follows The potency of substances which bind to human PPARalpha and activate it in an agonistic manner is analyzed using a stably transfected HEK cell line (HEK=human embryo kidney) which is referred to here as PPARalpha reporter cell line. It contained two genetic elements, a luciferase reporter element (pdeltaM-GAL4-Luc-Zeo) and a PPARalpha fusion protein (GR-GAL4-humanPPARalpha-LBD) which mediates expression of the luciferase reporter element depending on a PPARalpha ligand. The stably and constitutively expressed fusion protein GR-GAL4-humanPPARalpha-LBD binds in the cell nucleus of the PPARalpha reporter cell line via the GAL4 protein portion to the GAL4 DNA binding motifs 5′-upstream of the luciferase reporter element which was stably integrated in the genome of the cell line. There is only little expression of the luciferase reporter gene without addition of a PPARalpha ligand if fatty acid-depleted fetal calf serum (cs-FCS) is used in the assay. PPARalpha ligands bind and activate the PPARalpha fusion protein and thereby bring about expression of the luciferase reporter gene. The luciferase which is formed can be detected by means of chemiluminescence via an appropriate substrate.
The PPARalpha reporter cell line was prepared in two steps. Firstly, the luciferase reporter element was constructed and stably transfected into HEK cells. For this purpose, five binding sites of the yeast transcription factor GAL4 (in each case 5′-CGGAGTACTGTCCTCCGAG-3′) were cloned in 5′-upstream of a 68 bp-long minimal MMTV promoter (Genbank Accession #V01175). The minimal MMTV promoter section contains a CCAAT box and a TATA element in order to enable efficient transcription by RNA polymerase II. The cloning and sequencing of the GAL4-MMTV construct took place in analogy to the description of Sambrook J. et. al. (Molecular Cloning, Cold Spring Harbor Laboratory Press, 1989). Which is hereby incorporated by reference herein.
The complete Photinus pyralis luciferase gene (Genbank Accession #M15077) was cloned in 3′-downstream of the GAL4-MMTV element. After sequencing, the luciferase reporter element consisting of five GAL4 binding sites, MMTV promoter and luciferase gene was subcloned into a plasmid which confers zeozin resistance in order to obtain the plasmid pdeltaM-GAL4-Luc-Zeo. This vector was transfected into HEK cells in accordance with the statements in Ausubel, F.M. et al. (Current Protocols in Molecular Biology, Vol. 1-3, John Wiley & Sons, Inc., 1995).
In a second step, the PPARalpha fusion protein (GR-GAL4-humanPPARalpha-LBD) was introduced into the stable cell clone described. For this purpose, initially the cDNA coding for the N-terminal 76 amino acids of the glucocorticoid receptor (Genbank Accession # P04150) was linked to the cDNA section coding for amino acids 1-147 of the yeast transcription factor GAL4 (Genbank Accession #P04386). The cDNA of the ligand-binding domain of the human PPARalpha receptor (amino acids S167-Y468; Genbank Accession #S74349) was cloned in at the 3′ end of this GR-GAL4 construct. The fusion construct prepared in this way (GR-GAL4-humanPPARalpha-LBD) was subcloned into the plasmid pcDNA3 (from Invitrogen) in order to enable constitutive expression therein by the cytomegalovirus promoter. This plasmid was linearized with a restriction endonuclease and stably transfected into the previously described cell clone containing the luciferase reporter element. The finished PPARalpha reporter cell line which contains a luciferase reporter element and constitutively expresses the PPARalpha fusion protein (GR-GAL4-humanPPARalpha-LBD) was isolated by selection with zeozin (0.5 mg/ml) and G418 (0.5 mg/ml).
The activity of PPARalpha agonists was determined in a 3-day assay which is described below: […]

Experiment [2] deals with T2, human PPARgamma (Homo sapiens, UniProt P37231).
T2 construct: human PPARgamma receptor (amino acids 1152-Y475); expressed in transfected cells; host or cells: HEK cells (transiently transfected, pcDNA3-GAL4-humanPPARgammaLBD)
T2 sequence (P37231 182-477 isoform P37231-2 limits assumed): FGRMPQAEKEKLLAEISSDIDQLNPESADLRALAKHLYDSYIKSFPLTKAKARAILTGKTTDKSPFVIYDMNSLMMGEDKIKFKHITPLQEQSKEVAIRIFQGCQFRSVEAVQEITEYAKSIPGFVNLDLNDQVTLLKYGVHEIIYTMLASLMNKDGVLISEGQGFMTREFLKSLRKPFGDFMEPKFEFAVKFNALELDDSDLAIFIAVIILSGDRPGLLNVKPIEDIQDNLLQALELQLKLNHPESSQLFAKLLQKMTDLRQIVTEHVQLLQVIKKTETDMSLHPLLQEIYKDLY
Description: Cellular PPARgamma assay (transiently transfected HEK cells, luciferase reporter). Format: cell-based. Particulars: GAL4-humanPPARgammaLBD, firefly/Renilla luciferase ratio, 48 h. The text has this:
4) Determination of EC50 Values of PPAR Agonists in the Cellular PPARgamma Assay
A transient transfection system is employed to determine the cellular PPARgamma activity of PPAR agonists. It is based on the use of a luciferase reporter plasmid (pGL3basic-5xGAL4-TK) and of a PPARgamma expression plasmid (pcDNA3-GAL4-humanPPARgammaLBD). Both plasmids are transiently transfected into human embryonic kidney cells (HEK cells). There is then expression in these cells of the fusion protein GAL4-humanPPARgammaLBD which binds to the GAL4 binding sites of the reporter plasmid. In the presence of a PPARgamma-active ligand, the activated fusion protein GAL4-humanPPARgammaLBD induces expression of the luciferase reporter gene, which can be detected in the form of a chemiluminescence signal after addition of a luciferase substrate. As a difference from the stably transfected PPARalpha reporter cell line, in the cellular PPARgamma assay the two components (luciferase reporter plasmid and PPARgamma expression plasmid) are transiently transfected into HEK cells because stable and permanent expression of the PPARgamma fusion protein is cytotoxic.
The luciferase reporter plasmid pGL3basic-5xGAL4-TK is based on the vector pGL3basic from Promega. The reporter plasmid is prepared by cloning five binding sites of the yeast transcription factor GAL4 (each binding site with the sequence 5′-CTCGGAGGACAGTACTCCG-3′), together with a 160 bp-long thymidine kinase promoter section (Genbank Accession #AF027128) 5′-upstream into pGL3basic. 3′-downstream of the thymidine kinase promoter is the complete luciferase gene from Photinus pyralis (Genbank Accession # Ml 5077), which is already a constituent of the plasmid pGL3basic used. The cloning and sequencing of the reporter plasmid pGL3basic-5xGAL4-TK took place in analogy to the description in Sambrook J. et. al. (Molecular cloning, Cold Spring Harbor Laboratory Press, 1989).
The PPARgamma expression plasmid pcDNA3-GAL4-humanPPARgammaLBD was prepared by first cloning the cDNA coding for amino acids 1-147 of the yeast transcription factor GAL4 (Genbank Accession #P04386) into the plasmid pcDNA3 (from Invitrogen) 3′-downstream of the cytomegalovirus promoter. Subsequently, the cDNA of the ligand-binding domain (LBD) of the human PPARgamma receptor (amino acids […]; Accession #g1480099) 3′-downstream of the GAL4 DNA binding domain was cloned. Cloning and sequencing of the PPARgamma expression plasmid pcDNA3-GAL4-humanPPARgammaLBD again took place in analogy to the description in Sambrook J. et. al. (Molecular cloning, Cold Spring Harbor Laboratory Press, 1989). Besides the luciferase reporter plasmid pGL3basic-5xGAL4-TK and the PPARgamma expression plasmid pcDNA3-GAL4-humanPPARgammaLBD, also used for the cellular PPARgamma assay are the reference plasmid pRL-CMV (from Promega) and the plasmid pBluescript SK(+) from Stratagene. All four plasmids were prepared using a plasmid preparation kit from Qiagen, which ensured a plasmid quality with a minimal endotoxin content, before transfection into HEK cells.
The activity of PPARgamma agonists is determined in a 4-day assay which is described below. Before the transfection, HEK cells were cultivated in DMEM medium (#41965-039, Invitrogen) which was mixed with the following additions: 10% FCS (#16000-044, Invitrogen),1% penicillin-streptomycin solution (#15140-122, Invitrogen) and 2 mM L-glutamine (#25030-024, Invitrogen).
Solution A, a transfection mixture which contains all four plasmids previously described in addition to DMEM medium, was prepared. […]

For the compound “2-{(1R,3S)-3-[5-Isopropyl-2-(3-methoxyphenyl)oxazol-4-ylmethoxymethyl]cyclohexylmethoxy}-2-methylpropionic acid [Example 15]”, the EC50 in experiment [1] came out at 71.7 nM; in experiment [2], 150 nM.

For the compound `Cc1oc(-c2ccc(C(C)C)cc2)nc1COCC1CCCC(COC(C)(C)C(=O)O)C1` (stereo not drawn) [**], the figures for the EC50 in experiment [1] and in experiment [2] were 1.3 nM and greater than 10000 nM, respectively.

Consider `Cc1oc(-c2ccccc2)nc1COCC1CCCC(COC(C)(C)C(=O)O)C1` (stereo not drawn) [*], for which the EC50 in experiment [1] is 75 nM; in experiment [2] it was 2590 nM.

With `CCc1oc(-c2ccc(C(F)(F)F)cc2)nc1COC[C@@H]1CCC[C@H](COC(C)(C)C(=O)O)C1` [Example 1, 2-{(1S,3R)-3-[5-Ethyl-2-(4-trifluoromethylphenyl)oxazol-4-ylmethoxymethyl]cyclohexylmethoxy}-2-methylpropionic acid], the figures for the EC50 in experiment [1] and in experiment [2] were 3.6 nM and 1560 nM, respectively.

With `CCc1oc(-c2cccc(C(F)(F)F)c2)nc1COC[C@@H]1CCC[C@H](COC(C)(C)C(=O)O)C1` [Example 2, 2-{(1S,3R)-3-[5-Ethyl-2-(3-trifluoromethylphenyl)-oxazol-4-ylmethoxymethyl]cyclohexylmethoxy}-2-methylpropionic acid], the EC50 in experiment [1] came out at 32 nM; in experiment [2] it was 232 nM.

Turning to `CCc1oc(-c2ccccc2C(F)(F)F)nc1COC[C@@H]1CCC[C@H](COC(C)(C)C(=O)O)C1` [Example 3, 2-{(1S,3R)-3-[5-Ethyl-2-(2-trifluoromethylphenyl)-oxazol-4-ylmethoxymethyl]cyclohexylmethoxyl}-2-methylpropionic acid], the EC50 stood at 152 nM in experiment [1] and 2760 nM in experiment [2].

As to `CCc1oc(-c2ccc(C)c(C)c2)nc1COC[C@@H]1CCC[C@H](COC(C)(C)C(=O)O)C1` [Example 4, 2-{(1S,3R)-3-[2-(3,4-Dimethylphenyl)-5-ethyloxazol-4-ylmethoxymethyl]cyclohexylmethoxy}-2-methylpropionic acid], the EC50 came out at 1.9 nM in experiment [1] and 324 nM in experiment [2].

Turning to `CCc1oc(-c2ccc(C(C)(C)C)cc2)nc1COC[C@@H]1CCC[C@H](COC(C)(C)C(=O)O)C1` [Example 5, 2-{1(1S,3R)-3-[2-(4-tert-butylphenyl)-5-ethyloxazol-4-ylmethoxymethyl]cyclohexylmethoxy}-2-methylpropionic acid], the EC50 in experiment [1] amounted to 14.3 nM; in experiment [2], 266 nM.

As for `CC(C)c1oc(-c2ccc(C(F)(F)F)cc2)nc1COC[C@@H]1CCC[C@H](COC(C)(C)C(=O)O)C1` [Example 6, 2-{(1S,3R)-3-[5-Isopropyl-2-(4-trifluoromethylphenyl)oxazol-4-ylmethoxymethyl]cyclohexylmethoxy}-2-methylpropionic acid], the EC50 in experiment [1] came out at 19.3 nM; in experiment [2] it was 1880 nM.

Consider `CC(C)c1oc(-c2cccc(C(F)(F)F)c2)nc1COC[C@@H]1CCC[C@H](COC(C)(C)C(=O)O)C1` [Example 7, 2-{(1S,3R)-3-[5-Isopropyl-2-(3-trifluoromethylphenyl)oxazol-4-ylmethoxymethyl]cyclohexylmethoxyl}-2-methylpropionic acid], for which the EC50 is 46.2 nM in experiment [1] and 800 nM in experiment [2].

Turning to `Cc1ccc(-c2nc(COC[C@@H]3CCC[C@H](COC(C)(C)C(=O)O)C3)c(C(C)C)o2)cc1C` [Example 8, 2-{(1S,3R)-3-[2-(3,4-Dimethylphenyl)-5-isopropyloxazol-4-ylmethoxymethyl]cyclohexylmethoxy}-2-methylpropionic acid], the EC50 was 37.5 nM in experiment [1] and 1500 nM in experiment [2].

With `CC(C)c1oc(-c2ccc(C(C)(C)C)cc2)nc1COC[C@@H]1CCC[C@H](COC(C)(C)C(=O)O)C1` [Example 9, 2-{(1S,3R)-3-[2-(4-tert-butylphenyl)-5-isopropyloxazol-4-ylmethoxymethyl]cyclohexylmethoxy}-2-methylpropionic acid], the EC50 was determined as 48.8 nM in experiment [1] and 492 nM in experiment [2].
